Laboratory results taken from patent US11046954B2, “Targeted protein degradation to attenuate adoptive T-cell therapy associated adverse inflammatory responses” (Dana-Farber Cancer Institute, Inc., priority 2015, dated 2021).

How the values were obtained:
[1] = molecular target: T1, FKBP* (Homo sapiens, UniProt P62942, F37V); experiment: Immunoblot of 293FT cells (CRBN-WT or CRBN−/−) expressing HA-tagged FKBP*; type: cell-based; settings: for degradation of FKBP*: 100 nM
T1 construct: HA; expressed in transfected cells; host or cells: 293FT cells (CRBN-WT or CRBN-/-)
Description: FIG. 6 is an immunoblot of cells treated with bi-functional molecules described in the present invention. 293FT cells (CRBN-WT or CRBN−/−) expressing either HA-tagged FKBP12WT or FKBP* (also referred to as dFKBP12* herein) were treated with indicated concentrations of dFKBP7 for 4 hours.
Isogenic 293FT cells (CRBN-WT or CRBN−/−) expressing either FKBP12WT or FKBP* were treated with 100 nM of either dFKBP7 or dFKBP13 for 4 hours.
Isogenic 293FT cells (CRBN-WT or CRBN−/−) expressing HA-tagged FKBP* were treated with the indicated dose of dFKBP13 for 4 hours.
293FT cells (CRBN-WT) expressing HA-tagged FKBP* were treated with 100 nM dFKBP13 for the indicated times. Cells were harvested and protein lysates immunoblotted to measure the kinetics of HA-tagged FKBP* degradation induced by dFKBP13.
The dTAG is predicated on the selectivity of FKBP* specific ligands over endogenous, wild type FKBP. In 293 T cells expressing wild type FKBP 12 or FKBP*, dFKBP7 induces targeted degradation only in FKBP* expressing cells. An immunoblot of cells treated with bi-functional molecules described in the present invention was performed. 293FT cells (CRBN-WT or CRBN−/−) expressing either HA-tagged FKBP12WT or FKBP* were treated with indicated concentrations of dFKBP7 for 4 hours.
In 293T cells expressing wild type FKBP12 or FKBP*, treatment with dFKBP7 and dFKBP13 induces targeted degradation only in FKBP* expressing cells. Isogenic 293FT cells (CRBN-WT or CRBN−/−) were engineered to express either FKBP12WT or FKBP*. Cells were treated with 100 nM of either dFKBP7 or dFKBP13 for 4 hours before lysates were prepared for western immunoblot analysis.
In an effort to define the optimal concentration of dFKB13 heterobifunctional compounds to induce degradation of FKBP*, degradation was measured upon treatment with increasing concentrations of dFKBP13. Isogenic 293FT cells (CRBN-WT or CRBN−/−) were engineered to expressed HA-tagged FKBP*. Cells were treated with the indicated dose of dFKBP13 for 4 hours before lysates were prepared for western immunoblot analysis.
To evaluate the kinetic control of targeted degradation FKBP*, dFKBP13 was administered by increased duration. 293FT cells (CRBN-WT) were engineered to express HA-tagged FKBP*. Cells were treated with 100 nM dFKBP13 for the indicated times. Cells were harvested and protein lysates immunoblotted to measure the kinetics of HA-tagged FKBP* degradation induced by dFKBP 13.

[2] = molecular target: T2, CD19-CAR-dTAG (Homo sapiens, UniProt P62942+Q96SW2, F37V/H95N/M50V/V99I); experiment: Immunoblot of Jurkat T-cells expressing CD19-CAR-dTAG; type: cell-based; settings: for degradation of CD19-CAR-dTAG, time dependence: 250 nM, indicated time; for degradation of CD19-CAR-dTAG, dose dependence: indicated dose, 4 hours
T2 construct: HA; expressed in transfected cells; host or cells: Jurkat T-cells (lentiviral transduction, blasticidin selection)
Description: Jurkat T-cells were transduced with lentivirus expressing CD19-CAR-dTAG. Cells were selected with blasticidin and expanded. Stable expression of CD19-CAR-dTAG was confirmed.
Jurkat T-cells expressing CD19-CAR-dTAG were treated with the indicated dose of dFKBP7 or dFKBP13 for 4 hours.
FIG. 15A and FIG. 15B are immunoblots of cells treated with bi-functional molecules described in the present invention. Jurkat T-cells expressing CD19-CAR-dTAG were treated with 250 nM of dFKBP7 or dFKBP13 for the indicated time.
Jurkat T-cells expressing CD19-CAR-dTAG were treated with 250 nM of dFKBP7 for 4 hours. The dFKBP7 was then removed from the Jurkat cells via washouts and the re-expression of CD19-CAR-dTAG was monitored by immunoblot analysis at the indicated time points.
FIG. 17A illustrates the experimental design to measure the ability to control the expression CD19-CAR-dTAG in T-cells upon addition and removal of dFKBP7. Jurkat cells expressing CD19-CAR-dTAG were treated with 250 nM of dFKBP7 at the indicated time points (0 and 8 hours). At 4 and 12 hours, the dFKBP7 was washed out of the Jurkat cells. At each indicated timepoint, Jurkat cells were harvest to monitor CD19-CAR-dTAG expression levels via immunoblot analysis. FIG. 17B is the resulting immunoblot from the experimental design in FIG. 17A.
Jurkat T-cells were transduced with lentivirus expressing CD19-CAR-dTAG. Cells were selected with blasticidin and expanded. Stable expression of CD19-CAR-dTAG in Jurkat cells was confirmed by anti-HA western immunoblotting of whole cell lysates.
In an effort to define the optimal concentration of bifunctional molecules to induce degradation of CD19-CAR-dTAG, degradation was measured upon treatment with increasing concentrations of dFKBP7 and dFKBP13. Jurkat T-cells were engineered to express CD19-CAR-dTAG. Cells were treated with the indicated dose of dFKBP7 or dFKBP13 for 4 hours before lysates were prepared for western immunoblot analysis.
To evaluate the kinetic control of targeted degradation of CD19-CAR-dTAG, a fixed concentration of bi-functional molecules dFKBP7 and dFKBP13 were administered at a fixed concentration for increased duration. Jurkat T-cells were engineered to express CD19-CAR-dTAG. Cells were treated with 250 nM dFKBP7 or dFKBP13 for the indicated time before lysates were prepared for immunoblot analysis.
Immunoblot illustrating the kinetics of re-expression of the CD19-CAR-dTAG protein following targeting degradation with dFKBP7. Jurkat T-cells engineered to express CD19-CAR-dTAG were treated with 250 nM of dFKBP7 for 4 hours. The dFKBP7 was then removed from the Jurkat cells via washouts and the re-expression of CD19-CAR-dTAG was monitored by immunoblot analysis at the indicated time points.
FIG. 17A illustrates the experimental design to measure the ability to control the expression CD19-CAR-dTAG in T-cells upon addition and removal of dFKBP7. Jurkat cells engineered to express CD19-CAR-dTAG were treated with 250 nM of dFKBP7 at the indicated time points (0 and 8 hours). At 4 and 12 hours, the dFKBP7 was washed out of the Jurkat cells. At each indicated timepoint, Jurkat cells were harvest to monitor CD19-CAR-dTAG expression levels via immunoblot analysis.
FIG. 17B is an immunoblot illustrating the ability to toggle on and off expression of CD19-CAR-dTAG as described in FIG. 17A.

[3] = isogenic 293FT CRBN-WT or CRBN−/−, 4 hours

T2 sequence (P62942 with tags, fused parts or gaps F37V/M50V/H95N/V99I limits assumed): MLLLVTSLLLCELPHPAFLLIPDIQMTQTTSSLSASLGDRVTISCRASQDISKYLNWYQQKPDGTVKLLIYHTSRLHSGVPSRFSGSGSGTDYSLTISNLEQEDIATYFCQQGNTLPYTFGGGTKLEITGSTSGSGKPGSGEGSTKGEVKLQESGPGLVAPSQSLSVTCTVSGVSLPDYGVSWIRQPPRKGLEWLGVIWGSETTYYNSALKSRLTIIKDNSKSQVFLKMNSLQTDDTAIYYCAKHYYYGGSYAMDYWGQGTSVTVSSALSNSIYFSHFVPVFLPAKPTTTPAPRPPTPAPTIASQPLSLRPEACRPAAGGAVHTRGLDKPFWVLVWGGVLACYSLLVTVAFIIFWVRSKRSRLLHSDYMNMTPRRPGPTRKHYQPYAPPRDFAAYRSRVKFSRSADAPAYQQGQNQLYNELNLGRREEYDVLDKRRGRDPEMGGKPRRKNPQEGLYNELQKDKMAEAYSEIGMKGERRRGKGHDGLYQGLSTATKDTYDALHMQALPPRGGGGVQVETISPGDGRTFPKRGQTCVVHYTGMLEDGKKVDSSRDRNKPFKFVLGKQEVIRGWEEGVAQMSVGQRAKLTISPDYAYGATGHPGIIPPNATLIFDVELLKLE
T2 sequence (Q96SW2 whole entry): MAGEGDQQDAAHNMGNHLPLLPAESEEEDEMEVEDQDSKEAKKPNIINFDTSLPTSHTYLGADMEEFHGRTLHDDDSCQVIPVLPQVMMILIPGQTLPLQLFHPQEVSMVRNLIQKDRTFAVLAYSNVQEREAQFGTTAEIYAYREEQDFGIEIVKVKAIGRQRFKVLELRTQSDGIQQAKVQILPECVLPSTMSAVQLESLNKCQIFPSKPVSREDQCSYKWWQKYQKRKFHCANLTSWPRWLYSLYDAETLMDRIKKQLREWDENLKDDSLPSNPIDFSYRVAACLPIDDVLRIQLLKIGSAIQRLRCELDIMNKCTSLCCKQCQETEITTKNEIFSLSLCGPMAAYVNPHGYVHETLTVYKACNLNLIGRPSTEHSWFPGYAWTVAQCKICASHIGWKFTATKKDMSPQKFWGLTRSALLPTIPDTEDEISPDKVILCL
T2 sequence (Q16531 whole entry partner): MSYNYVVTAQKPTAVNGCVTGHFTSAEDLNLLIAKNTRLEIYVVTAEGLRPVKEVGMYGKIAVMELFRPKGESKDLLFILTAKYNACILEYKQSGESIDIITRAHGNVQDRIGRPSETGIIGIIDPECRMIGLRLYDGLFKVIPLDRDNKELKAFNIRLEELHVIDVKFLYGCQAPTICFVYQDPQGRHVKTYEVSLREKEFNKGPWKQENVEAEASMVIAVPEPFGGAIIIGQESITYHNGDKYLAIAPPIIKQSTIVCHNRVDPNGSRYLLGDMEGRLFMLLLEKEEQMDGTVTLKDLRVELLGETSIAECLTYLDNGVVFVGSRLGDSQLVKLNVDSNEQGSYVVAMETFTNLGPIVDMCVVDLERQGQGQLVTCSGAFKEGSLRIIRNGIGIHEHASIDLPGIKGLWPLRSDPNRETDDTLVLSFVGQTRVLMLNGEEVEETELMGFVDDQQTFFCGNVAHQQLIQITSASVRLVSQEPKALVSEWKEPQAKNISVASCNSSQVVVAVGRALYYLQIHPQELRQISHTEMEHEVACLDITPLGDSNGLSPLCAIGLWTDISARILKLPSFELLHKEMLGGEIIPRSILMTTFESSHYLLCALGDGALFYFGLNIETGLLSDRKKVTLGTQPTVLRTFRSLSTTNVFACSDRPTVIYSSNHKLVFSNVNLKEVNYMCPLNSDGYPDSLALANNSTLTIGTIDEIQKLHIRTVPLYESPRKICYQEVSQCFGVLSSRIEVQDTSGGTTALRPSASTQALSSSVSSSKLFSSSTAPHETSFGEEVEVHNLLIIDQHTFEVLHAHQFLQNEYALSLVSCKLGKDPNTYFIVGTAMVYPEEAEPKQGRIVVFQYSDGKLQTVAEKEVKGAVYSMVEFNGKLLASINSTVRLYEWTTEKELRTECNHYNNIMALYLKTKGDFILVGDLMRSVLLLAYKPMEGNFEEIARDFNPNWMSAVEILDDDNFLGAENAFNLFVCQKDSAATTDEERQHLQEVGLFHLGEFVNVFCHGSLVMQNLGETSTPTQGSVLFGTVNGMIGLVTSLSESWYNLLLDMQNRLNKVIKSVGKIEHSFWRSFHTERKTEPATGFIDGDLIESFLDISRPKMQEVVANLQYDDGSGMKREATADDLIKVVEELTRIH
T1 sequence (P62942 whole entry F37V): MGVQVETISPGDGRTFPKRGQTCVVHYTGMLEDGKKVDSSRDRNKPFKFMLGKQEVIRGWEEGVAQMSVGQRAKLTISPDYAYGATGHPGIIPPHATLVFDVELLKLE

| Structure (SMILES) | degradation of HA-tagged FKBP* ([1]; 293FT CRBN-WT or CRBN−/−, indicated concentrations of dFKBP7, 4 hours) | degradation of FKBP* [1, 3] | re-expression of CD19-CAR-dTAG after washout ([2]; Jurkat T-cells, 250 nM dFKBP7 4 hours, then removed via washouts) | degradation of CD19-CAR-dTAG, time dependence ([2]; Jurkat T-cells) | degradation of CD19-CAR-dTAG, dose dependence ([2]; Jurkat T-cells) | rheostat chemical control of CD19-CAR-dTAG expression ([2]; Jurkat cells, 250 nM dFKBP7 at 0 and 8 hours, washed out at 4 and 12 hours) | degradation of HA-tagged FKBP*, dose dependence ([1]; isogenic 293FT CRBN-WT or CRBN−/−, indicated dose, 4 hours) |
| --- | --- | --- | --- | --- | --- | --- | --- |
| CC[C@H](C(=O)N1CCCC[C@H]1C(=O)O[C@H](CCc1ccc(OC)c(OC)c1)c1cccc(OCC(=O)NCCCOCCOCCOCCCNC(=O)COc2cccc3c2C(=O)N(C2CCC(=O)NC2=O)C3=O)c1)c1cc(OC)c(OC)c(OC)c1 (stereo partly shown) [dFKBP7] | CRBN-dependent degradation of FKBP* | CRBN-dependent degradation of FKBP* | protein levels recovered following removal | time-dependent degradation | dose-dependent degradation | allows for exquisite chemical control of CD19-CAR-dTAG protein levels allowing for modulation within hours |  |
| CC[C@H](C(=O)N1CCCC[C@H]1C(=O)O[C@H](CCc1ccc(OC)c(OC)c1)c1cccc(OCC(=O)NCCCCCCOc2cccc3c2C(=O)N(C2CCC(=O)NC2=O)C3=O)c1)c1cc(OC)c(OC)c(OC)c1 (stereo partly shown) [dFKBP13] |  | CRBN-dependent degradation of FKBP* |  | time-dependent degradation | dose-dependent degradation |  | dose- and CRBN-dependent degradation |
